Experimental data: ChEMBL document CHEMBL1154094, “Carbonic anhydrase inhibitors. Aromatic/heterocyclic sulfonamides incorporating phenacetyl, pyridylacetyl and thienylacetyl tails act as potent inhibitors of human mitochondrial isoforms VA and VB” (Bioorg Med Chem, 2009)

Tests used:
[1] = target: Carbonic anhydrase 5A, mitochondrial (Homo sapiens, UniProt P35218)
[2] = target: Carbonic anhydrase 5B, mitochondrial (Homo sapiens, UniProt Q9Y2D0)
Chain of Carbonic anhydrase 5B, mitochondrial (Q9Y2D0 whole entry): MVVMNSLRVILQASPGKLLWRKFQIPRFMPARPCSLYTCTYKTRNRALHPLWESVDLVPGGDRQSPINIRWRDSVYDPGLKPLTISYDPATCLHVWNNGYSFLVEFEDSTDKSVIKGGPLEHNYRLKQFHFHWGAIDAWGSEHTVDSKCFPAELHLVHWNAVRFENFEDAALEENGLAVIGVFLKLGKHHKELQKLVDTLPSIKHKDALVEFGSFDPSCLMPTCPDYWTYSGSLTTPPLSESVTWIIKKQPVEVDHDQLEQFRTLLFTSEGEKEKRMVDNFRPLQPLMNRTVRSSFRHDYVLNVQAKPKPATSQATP

Chain of Carbonic anhydrase 5A, mitochondrial (P35218 whole entry): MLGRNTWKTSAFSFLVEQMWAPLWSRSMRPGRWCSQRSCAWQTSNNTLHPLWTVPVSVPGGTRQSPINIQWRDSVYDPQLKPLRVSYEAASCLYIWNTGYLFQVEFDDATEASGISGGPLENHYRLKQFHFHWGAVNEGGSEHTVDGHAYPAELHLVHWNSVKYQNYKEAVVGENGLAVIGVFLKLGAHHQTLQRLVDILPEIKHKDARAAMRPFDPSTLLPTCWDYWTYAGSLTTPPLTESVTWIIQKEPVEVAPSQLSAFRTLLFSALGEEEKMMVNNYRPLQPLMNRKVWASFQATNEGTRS

Ki [1]	Ki [2]	Structure (SMILES)
6.7 nM	7.9 nM	NS(=O)(=O)c1ccc(NC(=O)Cc2ccccc2)cc1
10.2 nM	8 nM	NS(=O)(=O)c1ccc(CCNC(=O)Cc2cccs2)cc1
9.1 nM	7.2 nM	NS(=O)(=O)c1ccc(CNC(=O)Cc2cccs2)cc1
7.2 nM	7 nM	NS(=O)(=O)c1ccc(NC(=O)Cc2cccs2)cc1
